The assay addresses T1, recombinant human Flag-tagged PARP7 (amino acids 456-657) (Homo sapiens, UniProt Q7Z3E1).
T1 construct: recombinant human Flag-tagged PARP7 (amino acids 456-657)
T1 sequence (Q7Z3E1 456-657): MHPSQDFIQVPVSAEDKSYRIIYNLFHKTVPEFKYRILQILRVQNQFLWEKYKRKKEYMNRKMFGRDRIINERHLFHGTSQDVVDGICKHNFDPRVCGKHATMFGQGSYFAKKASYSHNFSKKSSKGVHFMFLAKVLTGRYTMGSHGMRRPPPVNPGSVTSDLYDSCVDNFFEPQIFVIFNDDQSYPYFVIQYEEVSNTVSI
The assay can be described thus: PARP7 biochemical DELFIA assay (auto-MARylation). The conditions noted are these: DELFIA readout, IC50 class. The method, then:
A suitable assay may be conducted using 10-30 nM PARP7 (amino acids 456-657), 2 μM biotin-NAD assay solution in 20 mM HEPES (pH 7.5), 100 mM NaCl, 2 mM DTT, 0.1% BSA (w/v), 0.02% Tween (v/v) assay buffer. MARylation may take place for 2-3 h at room temperature and may be detected using a dissociation-enhanced lanthanide fluorescence immunoassay (DELFIA) readout. This assay format has been recently utilised for screening for modulators of PARP7 and other MonoPARP enzymes ([…]. et al. Forced Self-Modification Assays as a Strategy to Screen MonoPARP Enzymes. SLAS Discovery. 25; 241-252, (2020)). A particularly suitable assay is described in the Examples below. Optiplate HB 384-well plates were coated with anti-FLAG antibody, supplied as a 4 mg/ml solution, using a Na2CO3/HCO3 coating buffer at pH 9.6, overnight at 4° C., in order to achieve a final immobilisation per well of 0.3 μg. Wells were then washed 3× in coating wash buffer (PBS/0.05% Tween (v/v)), blocked with 2% BSA (w/v) in coating wash buffer and washed 3 further times prior to assay. For the assay 20 μl of 12.5-37.5 nM recombinant human Flag-tagged PARP7 (amino acids 456-657) was added to each well of the 384-well plate for 30 min at room temperature. 50 nl of test compound in DMSO was added using pintool technology and plates were incubated for a further 30 min at room temperature. 5 μl of 15 μM biotin-NAD^+ assay solution in 20 mM HEPES (pH 7.5), 100 mM NaCl, 2 mM DTT, 0.1% BSA (w/v), 0.02% Tween (v/v) assay buffer was then added and MARylation proceeded for 2-3 h at room temperature prior to the addition of 5 μl of 12 mM NAD^+ quenching solution. After 30 min at room temperature, assay solution was removed and following washing 5 times, 100 μl of a 1:1000 dilution of DELFIA Eu-N1 Streptavidin reagent was added. Plates were then incubated for 30 min at room temperature. Reaction mixture was removed and plates washed 5 times prior to the addition of 25 μl DELFIA enhancement solution. Following incubation for 30 min at room temperature, fluorescence was read on either an Envision or Pherastar FS (Ex337 nm, Em620 nm).

SMILES strings stand for the structures. A value given as a limit tells only on which side of the number the result lay.

Among the data in patent US20240217968A1, “PHARMACEUTICAL COMPOUND” (DUKE STREET BIO LIMITED, priority 2021, published 2024) are IC50 values, retold here.

In general, IC50 refers to the concentration that gives 50% inhibition. In the case of `CC(COCCC(=O)N1CCN(c2ccc(OC(F)(F)F)cn2)CC1)n1nc(C(F)(F)F)c2c(=O)[nH]ncc21` (single isomer, unassigned) [Compound 253], the IC50 was at most 100 nM.
For `CC(COCCC(=O)N1CCN(c2ccc(OC(F)(F)F)cn2)CC1)n1nc(C(F)(F)F)c2c(=O)[nH]ncc21` (single isomer, unassigned) [Compound 254] the value was at most 100 nM; for `Cc1nn(CCOCCC(=O)N2CCN(c3ncc(C(F)(F)F)cn3)C(C)C2)c2cn[nH]c(=O)c12` (single isomer, unassigned) [Compound 255], at most 100 nM.
`CC(COCCC(=O)N1CCN(c2ncc(C(F)(F)F)s2)CC1)n1nc(C(F)(F)F)c2c(=O)[nH]ncc21` (single isomer, unassigned) [Compound 258]: the IC50 is at most 100 nM.
In the case of `Cc1nn(C(C)COCCC(=O)N2CCN(c3ncc(C#N)cn3)CC2)c2cn[nH]c(=O)c12` (single isomer, unassigned) [Compound 262] it was at most 100 nM; in that of `Cc1nn(C(C)COCCC(=O)N2CCN(c3ncc(C#N)cn3)CC2)c2cn[nH]c(=O)c12` (single isomer, unassigned) [Compound 263], at most 100 nM; in that of `CC(COCCC(=O)N1CCN(c2cnc(C(F)(F)F)cn2)CC1)n1nc(C(F)(F)F)c2c(=O)[nH]ncc21` (single isomer, unassigned) [Compound 266], at most 100 nM.
In the case of `CC(COCCC(=O)N1CCN(c2ccc(C#N)cn2)CC1)n1nc(C(F)(F)F)c2c(=O)[nH]ncc21` (single isomer, unassigned) [Compound 270] it was at most 100 nM; in that of `CC(COCCC(=O)N1CCN(c2ccc(OC(F)F)cn2)CC1)n1nc(C(F)(F)F)c2c(=O)[nH]ncc21` (single isomer, unassigned) [Compound 274], at most 100 nM.
In the case of `CC(COCCC(=O)N1CCN(c2ccc(C3CC3)cn2)CC1)n1nc(C(F)(F)F)c2c(=O)[nH]ncc21` (single isomer, unassigned) [Compound 279] it was at most 100 nM; in that of `CC(COCCC(=O)N1CCN(c2ncc(C3CC3)cn2)CC1)n1nc(C(F)(F)F)c2c(=O)[nH]ncc21` (single isomer, unassigned) [Compound 280], at most 100 nM.
As to `CC(COCCC(=O)N1CCN(c2ncc(C3CC3)cn2)CC1)n1nc(C(F)(F)F)c2c(=O)[nH]ncc21` (single isomer, unassigned) [Compound 281], the IC50 was at most 100 nM.
For `CC(COCCC(=O)N1CCN(c2ncc(C#N)s2)CC1)n1nc(C(F)(F)F)c2c(=O)[nH]ncc21` (single isomer, unassigned) [Compound 284] the value was at most 100 nM; for `CC(COCCC(=O)N1CCN(c2ncc(C3COC3)cn2)CC1)n1nc(C(F)(F)F)c2c(=O)[nH]ncc21` (single isomer, unassigned) [Compound 289], at most 100 nM; for `CC(COCCC(=O)N1CCN(c2nnc(C(F)(F)F)s2)CC1)n1nc(C(F)(F)F)c2c(=O)[nH]ncc21` (single isomer, unassigned) [Compound 291], 100 to 1000 nM.
For `CC(COCCC(=O)N1CCN(c2ncc(OC(F)F)cn2)CC1)n1nc(C(F)(F)F)c2c(=O)[nH]ncc21` (single isomer, unassigned) [Compound 294] the value was at most 100 nM.
Turning to `CNC(=O)c1ccc(N2CCN(C(=O)CCOCC(C)n3nc(C(F)(F)F)c4c(=O)[nH]ncc43)CC2)nc1` (single isomer, unassigned) [Compound 305], the IC50 was at most 100 nM.
In the case of `COc1ccc(N2CCN(C(=O)CCOCC(C)n3nc(C(F)(F)F)c4c(=O)[nH]ncc43)CC2)nc1` (single isomer, unassigned) [Compound 306] it was at most 100 nM.
On to `CC(COCCC(=O)N1CCN(c2ccc(C3COC3)cn2)CC1)n1nc(C(F)(F)F)c2c(=O)[nH]ncc21` (single isomer, unassigned) [Compound 310], for which the half-inhibitory concentration (IC50) is at most 100 nM.
In the case of `CC(COCCC(=O)N1CCN(c2ccc(C3COC3)cn2)CC1)n1nc(C(F)(F)F)c2c(=O)[nH]ncc21` (single isomer, unassigned) [Compound 311] it was 100 to 1000 nM.
